Patent publication US20260184710A1, “CASITAS B-LINEAGE LYMPHOMA PROTOONCOGENE B (CBL-B) DEGRADING COMPOUNDS AND ASSOCIATED METHODS OF USE” (Arvinas Operations, Inc., priority 2022, published 2026)

Tests used:
Cbl-b [1] = target: T1, Cbl-b (Homo sapiens, UniProt Q13191); test: Cbl-b Degradation Method A (FACS, anti-Cbl-b antibody staining); type: cell-based; settings: Cbl-b-HiBit KI Jurkat Cells, incubated at least 20 hours; for DC50: half maximal degradation, read-out: Cbl-b Degredation Method A IC50; for Cbl-b Degredation Method A Dmax (%) / Dmax: maximum degradation observed; for Dmax: Jurkat, read-out: Cbl-b Degredation Method A Dmax (%)
T1 construct: Cbl-b-HiBit KI Jurkat Cells were purchased from Promega; host or cells: Cbl-b-HiBiT knock-in Jurkat cells
Experimental: Cbl-b Degradation Method A
Cbl-b-HiBit KI Jurkat Cells were purchased from Promega, and cell media consisted of RPMI 1640 with 10% FBS and 1% pen/strep. The cells were counted, measured for viability, and 100 μL of the cell solution was into 96 well flat bottom plates at a ratio of 290,000 cells per 100 μL. Compounds were dissolved in DMSO to make a 10 mM stock solution, which was diluted with cell media. 100 μL of the diluted compound mixture was added to the wells. The plate was incubated for at least 20 hours at 37° C. and 5% CO2. After incubation, the plate was shaken at 700-750 RMP for 15-30 minutes to ensure cells were removed from the wells. The wells were transferred to a 96-well v-bottom plate and spun for 2200 RPM for 3 minutes. The supernatant was removed, cells re-suspended in 100 μL of the fixative, and subsequently incubated at room temperature for 15 minutes. Afterwards, 150 μL of DPBS was added to each well, and the cells were centrifuged at 2500 RPM for 3 minutes. The supernatant was removed and the plate was chilled on ice for 2-3 minutes. While still on the ice, 100 μL of Perm III was added to each well, the wells mixed, and subsequently left on the ice for another 15 minutes. Afterwards, the plate was removed from the ice, 150 μL of DBPS was added to each well, and the cells centrifuged at 2700 RPM for 3 minutes. The supernatant was removed, and an additional 200 μL of was DPBS was added to each well, followed by centrifuging at 2700 RPM for 3 minutes, after which the supernatant was removed. The anti-Cbl-b antibody was diluted 1:200 in 1× Perm Wash buffer and 50 μL of the antibody mixture was added to each well and mixed. After addition, the plate was incubated for 35-45 minutes at room temperature. After incubation, 200 μL of DPBS was added to each wells, and the plate centrifuged at 2700 RPM for 3 minutes, followed by the removal of the supernatant. The washing step was repeated by adding 200 μL of DPBS to each wells followed by centrifuge at 2700 RPM for 3 minutes and removal of the supernatant. The a-Rabbit-AF488 antibody was diluted 1:1000 in Perm Wash buffer, 50 μL of the dilution added to each well, and mixed. After mixing, the plate was incubated for 30 minutes at room temperature in the dark. Subsequently, the supernatant was removed, and 200 μL of DBPS added to the cells, which were then centrifuged at 2900 RPM for 4 minutes. The supernatant was removed, and an additional 95 μL of DBPS was added to the wells and mixed. The cells were then transferred to a round bottom polypropylene plate and analyzed using FACS with the parameters below:
The concentration of an exemplary compound that leads to half maximal degradation (DC50) as well as the maximum degradation observed (Dmax, conventionally expressed as a percentage of control) is shown below in Table 2.

Cbl-b [2] = target: T1, Cbl-b; test: Cbl-b Degradation Method B (Nano-Glo HiBiT lytic detection); type: cell-based; settings: Cbl-b-HiBit KI Jurkat Cells, incubated at least 6-24 hours; for DC50: half maximal degradation, read-out: Cbl-b Degredation Method B IC50; for Cbl-b Degredation Method B Dmax (%) / Dmax: maximum degradation observed; for Dmax: read-out: Cbl-b Degredation Method B Dmax (%)
How it was run: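 An 11-point, 3-fold compound dilution was applied for 6-24 hours to Jurkat cells carrying HiBiT-tagged endogenous Cbl-b. Lytic HiBiT luminescence quantified residual protein. Outputs are DC50 and Dmax relative to DMSO control.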

T1 sequence (Q13191 whole entry): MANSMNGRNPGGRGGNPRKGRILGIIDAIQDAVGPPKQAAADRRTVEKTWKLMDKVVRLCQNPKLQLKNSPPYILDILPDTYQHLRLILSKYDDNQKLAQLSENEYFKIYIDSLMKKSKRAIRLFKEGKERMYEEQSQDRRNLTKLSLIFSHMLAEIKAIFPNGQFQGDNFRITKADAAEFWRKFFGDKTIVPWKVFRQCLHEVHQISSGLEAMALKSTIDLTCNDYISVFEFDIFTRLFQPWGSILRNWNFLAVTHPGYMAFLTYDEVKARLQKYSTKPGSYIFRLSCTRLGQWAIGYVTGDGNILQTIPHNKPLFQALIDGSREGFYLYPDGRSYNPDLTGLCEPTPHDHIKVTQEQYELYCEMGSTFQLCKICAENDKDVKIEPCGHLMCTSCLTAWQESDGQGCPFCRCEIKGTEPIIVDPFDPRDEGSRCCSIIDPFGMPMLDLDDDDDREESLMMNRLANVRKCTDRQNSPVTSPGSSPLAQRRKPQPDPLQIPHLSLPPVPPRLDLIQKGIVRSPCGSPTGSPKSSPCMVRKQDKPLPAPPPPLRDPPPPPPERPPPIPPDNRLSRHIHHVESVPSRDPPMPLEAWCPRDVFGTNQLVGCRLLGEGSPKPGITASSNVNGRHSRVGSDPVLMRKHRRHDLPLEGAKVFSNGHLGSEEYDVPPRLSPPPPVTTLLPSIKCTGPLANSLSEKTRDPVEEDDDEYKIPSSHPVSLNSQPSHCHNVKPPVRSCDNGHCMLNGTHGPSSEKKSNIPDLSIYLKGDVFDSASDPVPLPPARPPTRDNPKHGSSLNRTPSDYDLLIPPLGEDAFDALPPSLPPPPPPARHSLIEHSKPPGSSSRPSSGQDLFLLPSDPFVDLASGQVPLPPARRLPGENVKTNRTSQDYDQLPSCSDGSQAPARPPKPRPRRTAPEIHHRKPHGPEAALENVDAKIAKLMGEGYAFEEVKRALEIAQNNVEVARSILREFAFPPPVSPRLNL

Structure (SMILES) | DC50 (Cbl-b [1]) | Cbl-b Degredation Method A Dmax (%) (Cbl-b [1]) | DC50 (Cbl-b [2]) | Cbl-b Degredation Method B Dmax (%) (Cbl-b [2]) | Dmax (Cbl-b [1]) | Dmax (Cbl-b [2])
CC(c1cc2c(c(C(F)(F)F)c1)CN(c1cccc(C3(Cc4nncn4C)COC3)c1)C2=O)N1CCN(C[C@H]2CC[C@H](OC3CCN(c4ccc5c(c4F)CN(C4CCC(=O)NC4=O)C5=O)CC3)CC2)CC1 (single isomer, unassigned) [Example 9, 3-[4-fluoro-1-oxo-5-(4-{[(1r, 4r)-4-[(4-{1-[2-(3-{3-[(4-methyl-4H-1,2,4-triazol-3-yl)methyl]oxetan-3-yl}phenyl)-3-oxo-7-(trifluoromethyl)-2,3-dihydro-1H-isoindol-5-yl]ethyl}piperazin-1-yl)methyl]cyclohexyl]oxy}piperidin-1-yl)-2,3-dihydro-1H-isoindol-2-yl]piperidine-2,6-dione] | < 5 nM | B (35 < B < 70) | < 5 nM | B (35 < B < 70) |  | 
C[C@@H]1c2nc(N3CCC(O[C@H]4CC[C@H](CN5CCN(Cc6cc7c(c(C(F)(F)F)c6)CN(c6cccc(C8(Cc9nncn9C)CC(C#N)C8)c6)C7=O)C6(CC6)C5)CC4)CC3)ccc2C(=O)N1C1CCC(=O)NC1=O (single isomer, unassigned) [Example 304, (1r***,3r***)-3-[(4-methyl-4H-1,2,4-triazol-3-yl)methyl]-3-(3-{1-oxo-6-[(7-{[(1r**,4r**)-4-({1-[(7R*)-6-(2,6-dioxopiperidin-3-yl)-7-methyl-5-oxo-5H,6H,7H-pyrrolo[3,4-b]pyridin-2-yl]piperidin-4-yl}oxy)cyclohexyl]methyl}-4,7-diazaspiro[2.5]octan-4-yl)methyl]-4-(trifluoromethyl)-2,3-dihydro-1H-isoindol-2-yl}phenyl)cyclobutane-1-carbonitrile] | 50 to 500 nM |  | < 5 nM | C (C ≤ 35) | 35 to 70% | 
C[C@@H]1c2nc(N3CCC(O[C@H]4CC[C@H](CN5CCN(Cc6cc7c(c(C(F)(F)F)c6)CN(c6cccc(C8(Cc9nncn9C)CC(C#N)C8)c6)C7=O)C(C)(C)C5)CC4)CC3)ccc2C(=O)N1C1CCC(=O)NC1=O (single isomer, unassigned) [Example 306, (1r***,3r***)-3-(3-{6-[(2,2-dimethyl-4-{[(1r**,4r**)-4-({1-[(7R*)-6-(2,6-dioxopiperidin-3-yl)-7-methyl-5-oxo-5H,6H,7H-pyrrolo[3,4-b]pyridin-2-yl]piperidin-4-yl}oxy)cyclohexyl]methyl}piperazin-1-yl)methyl]-1-oxo-4-(trifluoromethyl)-2,3-dihydro-1H-isoindol-2-yl}phenyl)-3-[(4-methyl-4H-1,2,4-triazol-3-yl)methyl]cyclobutane-1-carbonitrile] | 50 to 500 nM |  | < 5 nM | C (C ≤ 35) | 35 to 70% | 
C[C@@H]1c2nc(N3CCC(O[C@H]4CC[C@H](CN5CCN(Cc6cc7c(c(C(F)(F)F)c6)CN(c6cccc(C8(Cc9nncn9C)CC(C#N)C8)c6)C7=O)C(C)(C)C5)CC4)CC3)ccc2C(=O)N1C1CCC(=O)NC1=O (single isomer, unassigned) [Example 307, (1r***,3r***)-3-(3-{6-[(2,2-dimethyl-4-{[(1r**,4r**)-4-({1-[(7R*)-6-(2,6-dioxopiperidin-3-yl)-7-methyl-5-oxo-5H,6H,7H-pyrrolo[3,4-b]pyridin-2-yl]piperidin-4-yl}oxy)cyclohexyl]methyl}piperazin-1-yl)methyl]-1-oxo-4-(trifluoromethyl)-2,3-dihydro-1H-isoindol-2-yl}phenyl)-3-[(4-methyl-4H-1,2,4-triazol-3-yl)methyl]cyclobutane-1-carbonitrile] | 50 to 500 nM | B (35 < B < 70) | < 5 nM | C (C ≤ 35) |  | 
C[C@@H]1c2nc(N3CCC(O[C@H]4CC[C@H](CN5CCN(Cc6cc7c(c(C(F)(F)F)c6)CN(c6cccc(C8(Cc9nncn9C)CC(C#N)C8)c6)C7=O)CC5(C)C)CC4)CC3)ccc2C(=O)N1C1CCC(=O)NC1=O (single isomer, unassigned) [Example 311, (1r***,3r***)-3-(3-{6-[(3,3-dimethyl-4-{[(1r**,4r**)-4-({1-[(7R*)-6-(2,6-dioxopiperidin-3-yl)-7-methyl-5-oxo-5H,6H,7H-pyrrolo[3,4-b]pyridin-2-yl]piperidin-4-yl}oxy)cyclohexyl]methyl}piperazin-1-yl)methyl]-1-oxo-4-(trifluoromethyl)-2,3-dihydro-1H-isoindol-2-yl}phenyl)-3-[(4-methyl-4H-1,2,4-triazol-3-yl)methyl]cyclobutane-1-carbonitrile] | 50 to 500 nM |  | < 5 nM | C (C ≤ 35) | 35 to 70% | 
Cn1cnnc1CC1(c2cccc(N3Cc4c(cc(N5CC6(CCN(CC7CCN(c8ccc9c(c8F)CN(C8CCC(=O)NC8=O)C9=O)CC7)CC6)C5)cc4C(F)(F)F)C3=O)c2)COC1 (stereo not drawn) [Example 1, 3-{4-fluoro-5-[4-({2-[2-(3-{3-[(4-methyl-4H-1,2,4-triazol-3-yl)methyl]oxetan-3-yl}phenyl)-3-oxo-7-(trifluoromethyl)-2,3-dihydro-1H-isoindol-5-yl]-2,7-diazaspiro[3.5]nonan-7-yl}methyl)piperidin-1-yl]-1-oxo-2,3-dihydro-1H-isoindol-2-yl}piperidine-2,6-dione] | < 5 nM |  | < 5 nM |  | 35 to 70% | 35 to 70%
Cn1cnnc1CC1(c2cccc(N3Cc4c(cc(CN5CCN(C[C@H]6CC[C@H](OC7CCN(c8ccc9c(c8F)CN(C8CCC(=O)NC8=O)C9=O)CC7)CC6)CC5)cc4C(F)(F)F)C3=O)c2)COC1 (stereo partly drawn) [Example 2, 3-[4-fluoro-1-oxo-5-(4-{[(1r, 4r)-4-[(4-{[2-(3-{3-[(4-methyl-4H-1,2,4-triazol-3-yl)methyl]oxetan-3-yl}phenyl)-3-oxo-7-(trifluoromethyl)-2,3-dihydro-1H-isoindol-5-yl]methyl}piperazin-1-yl)methyl]cyclohexyl]oxy}piperidin-1-yl)-2,3-dihydro-1H-isoindol-2-yl]piperidine-2,6-dione] | < 5 nM |  | < 5 nM |  | > 70% | 35 to 70%
Cn1cnnc1CC1(c2cccc(N3Cc4c(cc(N5CC6(CCN(CC7CCN(c8ccc9c(c8Cl)CN(C8CCC(=O)NC8=O)C9=O)CC7)CC6)C5)cc4C(F)(F)F)C3=O)c2)COC1 (stereo not drawn) [Example 4, 3-{4-chloro-5-[4-({2-[2-(3-{3-[(4-methyl-4H-1,2,4-triazol-3-yl)methyl]oxetan-3-yl}phenyl)-3-oxo-7-(trifluoromethyl)-2,3-dihydro-1H-isoindol-5-yl]-2,7-diazaspiro[3.5]nonan-7-yl}methyl)piperidin-1-yl]-1-oxo-2,3-dihydro-1H-isoindol-2-yl}piperidine-2,6-dione] | < 5 nM |  | < 5 nM |  | 35 to 70% | 35 to 70%
COc1c(N2CCC(CN3CCC4(CC3)CN(c3cc5c(c(C(F)(F)F)c3)CN(c3cccc(C6(Cc7nncn7C)COC6)c3)C5=O)C4)CC2)ccc2c1CN(C1CCC(=O)NC1=O)C2=O (stereo not drawn) [Example 8, 3-{4-methoxy-5-[4-({2-[2-(3-{3-[(4-methyl-4H-1,2,4-triazol-3-yl)methyl]oxetan-3-yl}phenyl)-3-oxo-7-(trifluoromethyl)-2,3-dihydro-1H-isoindol-5-yl]-2,7-diazaspiro [3.5]nonan-7-yl}methyl)piperidin-1-yl]-1-oxo-2,3-dihydro-1H-isoindol-2-yl}piperidine-2,6-dione] | 5 to 50 nM |  | < 5 nM |  | > 70% | 35 to 70%
